Test results published in patent US11154551B2, “HDAC1,2 inhibitors and methods of using the same” (UNIVERSITY OF UTAH RESEARCH FOUNDATION, priority 2014, dated 2021).
Entries after “also recorded” stand apart in the source; their conditions may differ.

How the values were obtained:
[1] = tested on: Karpas-422 and SUDHL4 cells; assay: Western blot of histone acetylation marks in whole cell lysates; conditions: 2 μM, 24 hours, vs DMSO
Protocol: Compounds were diluted in DMSO to 50 fold the final concentration and a ten point three fold dilution series was made. The compounds were diluted in assay buffer (50 mM HEPES, pH 7.4, 100 mM KCl, 0.001% Tween-20, 0.05% BSA, 20 μM tris(2-carboxyethyl)phosphine) to 6 fold their final concentration. The HDAC enzymes (purchased from BPS Biosciences) were diluted to 1.5 fold their final concentration in assay buffer. The tripeptide substrate (synthesized in house) and trypsin at 0.05 μM final concentration were diluted in assay buffer at 6 fold their final concentration. Five μl compounds and 20 μl of enzyme were added to wells of a black, opaque 384 well plate in duplicate. Enzyme and compound were incubated together at room temperature for 10 minutes. Five μl of substrate was added to each well, the plate was shaken for 60 seconds and placed into a Victor 2 microtiter plate reader. The development of fluorescence was monitored for 60 min and the linear rate of the reaction was calculated. The IC50 was determined using Graph Pad Prism by a four parameter curve fit.

Karpas-422 cells [2] = conditions: publically available RNA seq data set of GSK126 treated cells; cited from earlier work
[3] = tested on: Karpas-422 and SUDHL4 cells; assay: Western blot of chromatin extracts for H3K27ac and H3K27me3; assay type: cell-based, human; conditions: 48 h, chromatin extracts
Protocol: Western blot analysis was done with anti-H3K27ac, H3K27me3 or EZH2 and histone H3 served as a loading control.
Following DMSO or ACY-957 treatment, cells were exposed to a 5Gy dose of ionizing radiation and allowed to recover for 30 minutes prior to chromatin extraction. Western blots were performed with anti-H3K27ac or anti-H3K27me3 with histone H3 serving as a loading control. (B-E): Karpas-422, SUDHL4, WSU-DLCL2 and HeLa cells were laser micro-irradiated and allowed to recover for 15 minutes before fixation and immunofluorescence staining with anti-γH2AX and anti-H3K27me3. Subsequently, the percentage of cells with H3K27me3 lines that co-localized with γH2AX were counted. Merge is the overlay of γH2AX and H3K27me3 pictures. (F-I): At least 100 cells with γH2AX lines were counted in each experiment. The quantitation shown was the average calculated from independent experiments+/−standard error. Quantitation from five, seven, five and six independent experiments performed in Karpas-422, SUDHL4, WSU-DLCL2 and HeLa cells, respectively, was used in the graph shown in this figure. (J): Karpas-422 cells were micro-irradiated with a laser and allowed to recover for 15 minutes before fixation and immunofluorescence staining was performed with anti-γH2AX and anti-H3K27ac.
Protein Preparation and Western Blot Analysis.
The histone H3K27 residue was subjected to reversible acetylation and methylation. […] We also treated cells with the second EZH2 inhibitor, GSK126 alone, or combined with ACY-957 (ACY-957+GSK126). […] Cells were treated for 48 h prior to preparing chromatin extracts for Western analysis using antibodies recognizing H3K27ac or H3K27me3.
We first examined whether inhibiting HDAC1,2 activity induced any change in global H3K27ac or H3K27me3 on chromatin following DNA damage and during DNA repair. SUDHL4 or Karpas-422 cells with or without exposure to ionizing radiation (IR) were initially treated with DMSO or ACY-957 for 48 hr. Chromatin extracts were prepared from these cells following a 30 min recovery period (the repair phase) and changes in histone modifications were examined by Western blotting.

[4] = tested on: SUDHL4 and Karpas-422 cells; assay: γH2AX foci formation by immunofluorescence; assay type: cell-based, human; conditions: 48 h; 2 μM ACY-957, 0.5 μM DZNEP, 0.5 μM GSK126
Protocol: (§1) The percentage of cells with 6 or greater γH2AX foci were counted in three independent experiments and at least 100 cells were counted in each experiment. […] Histones were purified using trichloroacetic acid extraction protocol (see Example 1). Western blot analysis was done with anti-γH2AX and histone H2AX served as the loading control. […] Following DMSO or ACY957 treatment, cells were exposed to a 5Gy dose of ionizing radiation and allowed to recover for 30 minutes prior to chromatin extraction. Western blot analysis was done with anti-γH2AX where total histone H2AX served as a loading control. (D): Karpas-422 cells were micro-irradiated with laser and allowed to recover for 15 minutes before fixation and immunofluorescence staining with anti-γH2AX, anti-HDAC1 and anti-HDAC2 antibodies was done.
Immunofluorescence. Cells were fixed in either 10% formalin or methanol-acetone (1:1) for 10 min at −20*C. The cells were then permeabilized with 0.5% Triton-X-100 in PBS for 5 min at room temperature (RT), blocked in 10% normal goat serum (Sigma) for 30 min and stained with primary antibody for 1 h at RT. Cells were incubated with secondary antibody (anti-mouse or anti-rabbit IgG, Alexa Fluor 488/546) at a 1:600 dilution for 45 min at RT, and counterstained with Hoechst 33342 (Sigma) at 1:1000 dilution to visualize the nuclei. Images were captured using Zeiss Axioskop mot plus microscope with a 40× lens and analyzed using the AxioVision software.

Karpas-422 cells [5] = assay: propidium-iodide / BrdU-PI cell cycle analysis; assay type: cell-based, human; conditions: for progression through the cell cycle: 24 h; for progression through the cell cycle / cell cycle / sub-G1 (dead cells): 2 μM ACY-957, 0.5 μM DZNEP, 0.5 μM GSK126
Protocol: (§2) (B): Quantitation of the cell cycle data in (A), compiled from three independent analyses. The graphs plotted the average percentage of cells in each phase of the cell cycle. […] (C): FACS analysis following BrdU-PI staining of Karpas-422 and SUDHL4 cells was performed following a 48 h or 72 h treatment with ACY-957.
Cell cycle analysis of propidium-iodide stained cells was performed with fixed cells. […] (C): FACS analysis following BrdU-PI staining of Karpas-422 and SUDHL4 cells was performed following a treatment with 2 μM ACY-957, 50 nM doxorubicin or both for 48 h.
(§3) (B): Quantitation of the cell cycle analysis performed in (A). Data from three independent cell cycle analyses were compiled and average percentage cells with standard errors were shown in this panel.
(§4) Propidium-iodide Cell Cycle Analysis.
(§5) Since these DLBCL cells expressed a hyperactive form of EZH2, pharmacological inhibition of EZH2 activity was considered a therapeutic strategy. […] GSK126 was a S-adenosyl-methionine-competitive inhibitor of EZH2 methyltransferase activity, and DZNep was a S-adenosylhomocysteine hydrolase inhibitor that disrupted the components of the PRC2 complex, thereby causing reduced chromatin-associated EZH2 levels.
To test this possibility, cell cycle analysis following treatment of Karpas-422 with ACY-957, doxorubicin, or ACY-957 in combination with doxorubicin was performed.

SUDHL4 cells = assay: propidium-iodide / BrdU-PI cell cycle analysis; assay type: cell-based, human; conditions: for progression through the cell cycle: 24 h; for progression through the cell cycle / cell cycle / G1 arrest and sub-G1: 2 μM ACY-957, 0.5 μM DZNEP, 0.5 μM GSK126; for cell cycle / G1 arrest and sub-G1: 72 h
Protocol: as §2, §3, §4, §5

[6] = tested on: SUDHL4 and Karpas-422 cells; assay: Western blot of γH2AX on chromatin, with or without ionizing radiation; assay type: cell-based, human; conditions: 48 hr, Western
Protocol: as §1

[7] = tested on: Hdac1,2 or Hdac3 knockout cell lines; assay: Western blot of H4K5ac in conditional Hdac1,2 or Hdac3 knockout cells; assay type: cell-based, mouse
Protocol: (§6) For IC50 determination, recombinant HDAC enzymes were treated with HDAC1,2 or HDAC3 inhibitors in in vitro HDAC assays. (B). Western blots for H3K23ac using extracts from Pre-B-ALL SupB15 cells treated with increasing dose of HDAC1,2 inhibitor (ACY1035). (C). Hdac1^FI/FI, 2^FI/FI cells were infected with Ad-Cre virus to delete HDAC1 and HDAC2 (HDAC1,2 null) or uninfected (WT). (D). Hdac3^FI/FI cells were either uninfected (WT) or infected with Ad-Cre virus to delete Hdac3.

[8] = tested on: SupB15 (Ph+PreB-ALL) cells; assay: γH2AX immunofluorescence; assay type: cell-based, human; conditions: 2 μM, 48 hours
Protocol: SupB15 cells were treated with 2 μM ACY1035, ACY1071, ACY957, or solvent (DMSO) for 48 hours. (A) Immunofluorescence with γH2AX was performed on treated SupB15 cells. The number of γH2AX foci was counted in around 100 cells for each treatment and classified into cells with no foci, 1-5, 6-10, and greater than 10 foci. (B) SupB15 cells treated with DMSO or ACY1035 for 48 hours were tested via neutral comet assay to measure the amount of double-strand breaks (DSBs), indicated by the tail.
BCR-ABL promotes DNA repair to prevent DNA damage accumulation in Philadelphia chromosome-positive (Ph+) leukemia cells. To examine the effect of various HDAC1,2-selective inhibitors on DNA repair and DNA damage response in Pre-B-ALL cells that express BCR-ABL, SupB15 (Ph+PreB-ALL) cells were treated with 2 μM ACY1035 or 2 μM ACY1071 or 2 μM ACY957 for 48 hours.

Hdac1,2 = assay: in vitro enzyme assays, IC50 determination (FIG. 17A); assay type: biochemical
Protocol: as §6, with “(A). For” for “For”, “Hdac3. HDAC3-null cells were treated with DMSO or the HDAC1,2 selective inhibitor.” for “Hdac3.”
We have determined 2 μM (FIG. 17B) as the minimum dose for the ACY compounds, respectively, that when added to cells increased H3K23ac (a mark targeted by Hdac1,2 but not Hdac3).

SMILES	global H3K27me3 levels [3]	cells with γH2AX foci [4]	progression through the cell cycle (Karpas-422 cells [5])	cell cycle / sub-G1 (dead cells) (Karpas-422 cells [5]; 48 h)	cell cycle / sub-G1 (dead cells) (Karpas-422 cells [5]; 72 h)	progression through the cell cycle (SUDHL4 cells)	cell cycle / G1 arrest and sub-G1 (SUDHL4 cells)	also measured
O=C(CCCCCCC(=O)Nc1ccccc1)NO [SAHA, Vorinostat, reference compound]	–	–	–	–	–	–	–	H3K23ac levels [1]: increase in H3K23ac
CC[C@H](C)n1cc(C)c2c(C(=O)NCc3c(C)cc(C)[nH]c3=O)cc(-c3ccc(N4CCNCC4)nc3)cc21 [GSK126, reference compound]	decrease in global H3K27me3 levels; also recorded: significant decrease in H3K27me3	slight increase in γH2AX foci	did not affect their progression through the cell cycle	did not cause any change in the progression	did not result in any defect in the cell cycle progression and/or survival	did not affect their progression through the cell cycle	did not result in any defect in the cell cycle progression and/or survival	BLIMP1 expression increase (Karpas-422 cells [2]): 2.4 fold; incubation required to decrease the viability (Karpas-422 cells [5]): 7 days; cell cycle / G1 arrest (SUDHL4 cells; 48 h, 2 μM ACY-957, 0.5 μM GSK126): did not cause any change in the progression
Nc1nccc2c1ncn2C1C=C(CO)C(O)C1O (stereo not shown) [DZNep, reference compound]	without reducing global H3K27me3 levels	significant increase in the number of cells with greater than six γH2AX foci	did not affect their progression through the cell cycle	modest increase in the number of dead Karpas-422 cells	larger increase in the number of dead Karpas-422 cells	did not affect their progression through the cell cycle	modest increase in dead/sub-G1 SUDHL4 cells	chromatin associated γH2AX [6]: greater increase in γH2AX levels on chromatin compared to GSK126
Nc1ccccc1NC(=O)c1ccc(CNC(=O)OCc2cccnc2)cc1 [MS275, reference compound]	–	–	–	–	–	–	–	H4K5ac compared with deletion of Hdac1,2 [7]: greater increase in H4K5ac than the deletion of just Hdac1,2
Nc1ccc(-c2ccncc2)cc1NC(=O)c1ccc2c(c1)cc(C1CC1)n2CCN1CCOCC1 [ACY-1071, N-(2-amino-5-(pyridin-4-yl)phenyl)-2-cyclopropyl-1-(2-morpholinoethyl)-1H-indole-5-carboxamide]	–	–	–	–	–	–	–	DNA damage, quantitation of γH2AX foci [8]: statistically significant increase in DNA damage; inhibition of Hdac1,2 activities compared to Hdac3 (IC50 values) (Hdac1,2): very selectively
